According to patent US4068074A, “Cephalosporin derivatives having at the 3-position of the cephem ring a heterocyclic thiomethyl group with a carboxy or sulfo group and at the 7-position of the cephem ring an α-heterocylic acylaminophenyl-acetamide group” (priority 1974, dated 1978):
Values after ≈ are worked out from the molar mass of the structure shown. Where two headings read alike, the source gives them in different places.

How the values were obtained:
Assay type in all cases: cell-based
[1] = system: Shigella flexneri 2a 1675; assay: MIC against bacteria (Table I), strain (11); conditions: 2A1675; (11) Shigella flexneri 2a 1675; read-out: MIC
Text: (§1) Now, for illustrating the excellent pharmacological effects of the compounds of this invention, the values of MIC (γ/ml.) of the compounds against various bacteria are shown in Table 1, in which the compounds of this invention used are shown by example numbers.

[2] = system: Pseudomonas aeruginosa ATCC 8689; assay: MIC against bacteria (Table I), strain (4); conditions: ATCC8689; (4) Pseudomonas aeruginosa ATCC 8689; read-out: MIC
Text: as §1
(4) Pseudomonas aeruginosa ATCC 8689

[3] = system: Micrococcus flavus ATCC 10240; assay: MIC against bacteria (Table I), strain (15); conditions: ATCC10240
Text: as §1
(15) Micrococcus flavus ATCC 10240

[4] = system: Psuedomonas ovalis IMA 1002; assay: MIC against bacteria (Table I), strain (6); conditions: (6) Psuedomonas ovalis IMA 1002; read-out: MIC
Text: as §1
(6) Psuedomonas ovalis IMA 1002

Salmonella enteritidis = assay: MIC against bacteria (Table I), strain (10); conditions: Salmonella enterica
Text: as §1
(10) Salmonella enteritidis

[5] = system: Escherichia coli kauffmann 0-1; assay: MIC against bacteria (Table I), strain (7); conditions: Escherichia coli
Text: as §1
(7) Escherichia coli kauffmann 0-1

[6] = system: Staphylococcus Shimanishi; assay: MIC against bacteria (Table I), strain (17)
Text: as §1
(17) Staphylococcus Shimanishi

Staphylococcus Onuma = assay: MIC against bacteria (Table I), strain (18); conditions: (18) Staphylococcus Onuma; read-out: MIC
Text: as §1
(18) Staphylococcus Onuma

[7] = system: Klebsiella pneumoniae ATCC 10031; assay: MIC against bacteria (Table I), strain (8); conditions: ATCC10031
Text: as §1
(8) Klebsiella pneumoniae ATCC 10031

[8] = system: Bacillus megatherium 10778; assay: MIC against bacteria (Table I), strain (13); conditions: (13) Bacillus megatherium 10778; read-out: MIC
Text: as §1

[9] = system: Pseudomonas aeruginosa 99 (Gentamycin resistant); assay: MIC against bacteria (Table I), strain (5)
Text: as §1
(5) Pseudomonas aeruginosa 99 (Gentamycin resistant)

Salmonella typhi H901 W = assay: MIC against bacteria (Table I), strain (9); conditions: Salmonella enterica, TYPHI
Text: as §1
(9) Salmonella typhi H901 W

Proteus vulgaris OXK US = assay: MIC against bacteria (Table I), strain (1); conditions: (1) Proteus vulgaris OXK US; read-out: MIC
Text: as §1
(1) Proteus vulgaris OXK US

Shigella sonnei II 37148 = assay: MIC against bacteria (Table I), strain (12); conditions: II37148; (12) Shigella sonnei II 37148; read-out: MIC
Text: as §1

[10] = system: Staphylococcus aureus 209P; assay: MIC against bacteria (Table I), strain (16); conditions: Staphylococcus aureus, 209P
Text: as §1
(16) Staphylococcus aureus 209P

Proteus vulgaris 0X 19US = assay: MIC against bacteria (Table I), strain (2); conditions: 0X19US
Text: as §1
(2) Proteus vulgaris 0X 19US

[11] = system: Bacillus subtilis ATCC 6633; assay: MIC against bacteria (Table I), strain (14); conditions: ATCC6633; (14) Bacillus subtilis ATCC 6633; read-out: MIC
Text: as §1
(14) Bacillus subtilis ATCC 6633

[12] = system: Proteus mirabilis IXM OM-19; assay: MIC against bacteria (Table I), strain (3); conditions: IXMOM19; (3) Proteus mirabilis IXM OM-19; read-out: MIC
Text: as §1
(3) Proteus mirabilis IXM OM-19

[13] = (15) Micrococcus flavus ATCC 10240, read-out: MIC
[14] = (10) Salmonella enteritidis, read-out: MIC
[15] = (17) Staphylococcus Shimanishi, read-out: MIC
[16] = (8) Klebsiella pneumoniae ATCC 10031, read-out: MIC
[17] = (5) Pseudomonas aeruginosa 99 (Gentamycin resistant), read-out: MIC
[18] = (2) Proteus vulgaris 0X 19US, read-out: MIC

Row | SMILES | MIC [1] | MIC [2] | MIC [3, 13] | MIC [4] | MIC (Salmonella enteritidis; [14]) | MIC [5] | MIC [6, 15] | MIC (Staphylococcus Onuma) | MIC [7, 16] | MIC [8] | MIC [9, 17] | MIC (Salmonella typhi H901 W) | MIC (Proteus vulgaris OXK US) | MIC (Shigella sonnei II 37148) | MIC [10] | MIC (Proteus vulgaris 0X 19US; [18]) | MIC [11] | MIC [12] | MIC ([3]; Micrococcus flavus) | further results
1 | O=C(O)Cn1nnnc1SCC1=C(C(=O)O)N2C(=O)[C@@H](NC(=O)[C@H](NC(=O)c3cnccc3O)c3ccccc3)[C@H]2SC1 [Example 15, 7-[D-α-(4-hydroxynicotinoylamido)-α-phenylacetamido]-3-(1-carboxymethyltetrazol-5-yl)-thiomethyl-Δ^3-cephem-4-carboxylic acid] | 3.13 µg/mL (≈ 4.99 µM) | 25 µg/mL (≈ 39.9 µM) | 25 µg/mL (≈ 39.9 µM) | 12.5 µg/mL (≈ 19.9 µM) | 0.78 µg/mL (≈ 1.24 µM) | 6.25 µg/mL (≈ 9.97 µM) | 12.5 µg/mL (≈ 19.9 µM) | 25 µg/mL (≈ 39.9 µM) | 6.25 µg/mL (≈ 9.97 µM) | 0.39 µg/mL (≈ 0.622 µM) | 6.25 µg/mL (≈ 9.97 µM) | 3.13 µg/mL (≈ 4.99 µM) | 0.19 µg/mL (≈ 0.303 µM) | 3.13 µg/mL (≈ 4.99 µM) | 3.13 µg/mL (≈ 4.99 µM) | 0.39 µg/mL (≈ 0.622 µM) | 0.39 µg/mL (≈ 0.622 µM) | < 0.09 µg/mL |  | 
2 | CC(Sc1nnc(SCC2=C(C(=O)O)N3C(=O)[C@@H](NC(=O)[C@H](NC(=O)c4cnccc4O)c4ccccc4)[C@H]3SC2)s1)C(=O)O (stereo partly drawn) [Example 21, 7-[D-α-(4-hydroxynicotinoylamido)-α-phenylacetamido]-3-[5-(1-carboxyethylthio)-1,3,4-thiadiazol-2-yl]thiomethyl-Δ^3-cephem-4-carboxylic acid] | 1.56 µg/mL (≈ 2.26 µM) | 12.5 µg/mL (≈ 18.1 µM) |  | 12.5 µg/mL (≈ 18.1 µM) |  | 3.13 µg/mL (≈ 4.54 µM) | 6.25 µg/mL (≈ 9.07 µM) | 6.25 µg/mL (≈ 9.07 µM) | 6.25 µg/mL (≈ 9.07 µM) | 0.39 µg/mL (≈ 0.566 µM) | 12.5 µg/mL (≈ 18.1 µM) | 1.56 µg/mL (≈ 2.26 µM) | < 0.09 µg/mL | 3.13 µg/mL (≈ 4.54 µM) | 1.56 µg/mL (≈ 2.26 µM) | 0.19 µg/mL (≈ 0.276 µM) | 0.39 µg/mL (≈ 0.566 µM) | 0.39 µg/mL (≈ 0.566 µM) | 3.13 µg/mL (≈ 4.54 µM) | MIC (Salmonella enteritidis; ENTERITIDIS): 0.39 µg/mL (≈ 0.566 µM)
3 | CC(C)(Sc1nnc(SCC2=C(C(=O)O)N3C(=O)[C@@H](NC(=O)[C@H](NC(=O)c4cnccc4O)c4ccccc4)[C@H]3SC2)s1)C(=O)O [Example 22, 7-[D-α-(4-hydroxynicotinoylamido)-α-phenylacetamido]-3-[5-(1-carboxy-1-methylethylthio)-1,3,4-thiadiazol-2-yl]thiomethyl-Δ^3-cephem-4-carboxylic acid] | 1.56 µg/mL (≈ 2.22 µM) | 12.5 µg/mL (≈ 17.8 µM) | 6.25 µg/mL (≈ 8.89 µM) | 12.5 µg/mL (≈ 17.8 µM) | 0.78 µg/mL (≈ 1.11 µM) | 3.13 µg/mL (≈ 4.45 µM) | 12.5 µg/mL (≈ 17.8 µM) | 12.5 µg/mL (≈ 17.8 µM) | 6.25 µg/mL (≈ 8.89 µM) | 0.39 µg/mL (≈ 0.555 µM) | 6.25 µg/mL (≈ 8.89 µM) | 3.13 µg/mL (≈ 4.45 µM) | 0.19 µg/mL (≈ 0.27 µM) | 3.13 µg/mL (≈ 4.45 µM) | 1.56 µg/mL (≈ 2.22 µM) |  | 0.78 µg/mL (≈ 1.11 µM) | 0.39 µg/mL (≈ 0.555 µM) |  | MIC (Proteus vulgaris 0X 19US; Proteus vulgaris): 1.56 µg/mL (≈ 2.22 µM)
4 | Cc1cc(O)c(C(=O)N[C@@H](C(=O)N[C@@H]2C(=O)N3C(C(=O)O)=C(CSc4nnc(SCC(=O)O)s4)CS[C@H]23)c2ccccc2)cn1 [Example 29, 7-[D-α-(4-hydroxy-6-methylnicotinoylamido)-α-phenylacetamido]-3-(5-carboxymethylthio-1,3,4,-thiadiazol-2-yl)thiomethyl-Δ^3-cephem-4-carboxylic acid] | 0.78 µg/mL (≈ 1.13 µM) | 12.5 µg/mL (≈ 18.1 µM) | 6.25 µg/mL (≈ 9.07 µM) | 12.5 µg/mL (≈ 18.1 µM) | 0.78 µg/mL (≈ 1.13 µM) | 3.13 µg/mL (≈ 4.54 µM) | 6.25 µg/mL (≈ 9.07 µM) | 12.5 µg/mL (≈ 18.1 µM) | 6.25 µg/mL (≈ 9.07 µM) | 0.78 µg/mL (≈ 1.13 µM) | 6.25 µg/mL (≈ 9.07 µM) | 1.56 µg/mL (≈ 2.26 µM) | < 0.09 µg/mL | 3.13 µg/mL (≈ 4.54 µM) | 1.56 µg/mL (≈ 2.26 µM) | 12.5 µg/mL (≈ 18.1 µM) | 0.78 µg/mL (≈ 1.13 µM) | 0.78 µg/mL (≈ 1.13 µM) |  | 
5 | Nn1c(SCC(=O)O)nnc1SCC1=C(C(=O)O)N2C(=O)[C@@H](NC(=O)[C@H](NC(=O)c3cnccc3O)c3ccccc3)[C@H]2SC1 [Example 30, 7-[D-α-(4-hydroxynicotinoylamido)-α-phenylacetamido]-3-(1-amino-5-carboxymethylthio-1,3,4-triazol-2-yl)thiomethyl-Δ^3-cephem-4-carboxylic acid] | 6.25 µg/mL (≈ 9.29 µM) | 25 µg/mL (≈ 37.2 µM) |  | 25 µg/mL (≈ 37.2 µM) | 1.56 µg/mL (≈ 2.32 µM) | 6.25 µg/mL (≈ 9.29 µM) |  | 25 µg/mL (≈ 37.2 µM) |  | 0.78 µg/mL (≈ 1.16 µM) |  | 6.25 µg/mL (≈ 9.29 µM) | < 0.09 µg/mL | 12.5 µg/mL (≈ 18.6 µM) | 1.56 µg/mL (≈ 2.32 µM) | 0.78 µg/mL (≈ 1.16 µM) | 0.78 µg/mL (≈ 1.16 µM) | 0.78 µg/mL (≈ 1.16 µM) | 12.5 µg/mL (≈ 18.6 µM) | MIC ([6]; Staphylococcus): 12.5 µg/mL (≈ 18.6 µM); MIC ([7]; Klebsiella pneumoniae): 12.5 µg/mL (≈ 18.6 µM); MIC ([9]; Pseudomonas aeruginosa): 12.5 µg/mL (≈ 18.6 µM)
